Counter-ions that a name gives are not always drawn. Like-named read-outs stand apart in the source and are kept apart here.
Tests used:
mGluR5 receptor (human) = target: T1, mGluR5 receptor (human) (Homo sapiens, UniProt P41594); assay: Functional Ca2+ influx assay in CHO-hmGluR5 cells (DHPG 10 μM, FLIPR); format: cell-based
T1 construct: host or cells: CHO
Method: V. Functional Ca^2+ Influx Assay
20,000 CHO-hmGluR5 cells/well (Euroscreen, Gosselies, Belgium) are pipetted into 96-well plates (BD Biosciences, Heidelberg, Germany, Ref. 356640, clear bottom, 96-well, poly-D-lysine) and incubated overnight in HBSS buffer (Gibco 14025-050) with the following additions: 10% FCS (GIBCO, 10270-106) and doxycycline (BD Biosciences Clontech 631311 600 ng/ml).
For the functional study the cells were charged with 2 μM of Fluo-4 and 0.01% by vol. pluronic F127 (Molecular Probes Europe BV, Leiden, The Netherlands) in HBSS buffer (Hank's buffered saline solution, Gibco Invitrogen GmbH, Karlsruhe, Germany) with probenicide (Sigma P8761, […]) for 30 min. at 37° C.
The cells are then washed 3 times with washing buffer (HBSS buffer, Gibco No. 14025-050), with probenicide (Sigma P8761, 0.69 mg/ml) and then taken up with the same buffer ad 100 μl. After 15 min. the plates for determining the Ca^2+ measurements in the presence of DHPG ((S)-3,5-dihydroxyphenylglycine, Tocris Biotrend Chemikalien GmbH, Cologne, Germany, final DHPG concentration: 10 μM) and also in the presence or absence of test substances are transferred into a fluorometric imaging plate reader (FLIPR, Molecular Devices, Sunnyvale, Calif.).
The Ca^2+-dependent fluorescence is measured before and after the addition of test substances. The quantification occurs through the measurement of the highest fluorescence intensity over time. After the fluorescence base line has been recorded for 10 sec. 50 μl of test substance solution (different test substance concentrations in HBSS buffer with 1% DMSO and 0.02% Tween 20, Sigma) are added and the fluorescence signal is measured for 6 min. 50 μl of DHPG solution ((S)-3,5-dihydroxyphenylglycine, Tocris Biotrend Chemikalien GmbH, Cologne, Germany, final DHPG concentration: 10 μM) are then added and the influx of Ca^2+ is measured simultaneously for 60 sec. The final DMSO concentration amounts to 0.25% and the final Tween 20 content amounts to 0.005%. The data are analysed with Microsoft Excel and GraphPad Prism. The dose effect curves are calculated with non-linear regression and IC50 values determined. Each data point is determined 3 times and IC50 values are averaged from a minimum of 2 independent measurements. Ki values are calculated according to the following formula:
Ki=IC50/(1+(AGconc./EC50)).
AGconc.=10 μM; EC50 corresponds to the DHPG concentration necessary for the half-maximum influx of Ca^2+.

mGluR5 receptor = target: T2, mGluR5 receptor (Sus scrofa, UniProt I3LUI7); assay: [3H]-MPEP mGluR5 receptor binding assay (pig brain homogenate); settings: 5 nM [3H]-MPEP; for inhibition at 10 µM / % Inhibition of mGluR5 Receptor (pig) [^3H]-MPEP Bond at 10 μM: 10 μM compound; for inhibition at 10 µM: read-out: % Inhibition of mGluR5 Receptor (pig) [^3H]-MPEP Bond at 10 μM
T2 construct: 450 μg of protein from brain homogenate with 5 nM ^3[H]-MPEP; from tissue; host or cells: pig brain halves without medulla, cerebellum and pons
How it was run: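 Compounds at 10 μM competed with 5 nM [3H]-MPEP for binding to pig brain membranes (450 μg protein) for 60 min at room temperature in pH 8.0 Hepes buffer. Bound radioactivity was collected on glass-fibre filters and read by β-counting, with 10 μM unlabelled MPEP giving non-specific binding.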

[1] = read-out: IC50 mGluR5 Receptor (pig) [^3H]-MPEP Bond

T2 sequence (I3LUI7 19-1212): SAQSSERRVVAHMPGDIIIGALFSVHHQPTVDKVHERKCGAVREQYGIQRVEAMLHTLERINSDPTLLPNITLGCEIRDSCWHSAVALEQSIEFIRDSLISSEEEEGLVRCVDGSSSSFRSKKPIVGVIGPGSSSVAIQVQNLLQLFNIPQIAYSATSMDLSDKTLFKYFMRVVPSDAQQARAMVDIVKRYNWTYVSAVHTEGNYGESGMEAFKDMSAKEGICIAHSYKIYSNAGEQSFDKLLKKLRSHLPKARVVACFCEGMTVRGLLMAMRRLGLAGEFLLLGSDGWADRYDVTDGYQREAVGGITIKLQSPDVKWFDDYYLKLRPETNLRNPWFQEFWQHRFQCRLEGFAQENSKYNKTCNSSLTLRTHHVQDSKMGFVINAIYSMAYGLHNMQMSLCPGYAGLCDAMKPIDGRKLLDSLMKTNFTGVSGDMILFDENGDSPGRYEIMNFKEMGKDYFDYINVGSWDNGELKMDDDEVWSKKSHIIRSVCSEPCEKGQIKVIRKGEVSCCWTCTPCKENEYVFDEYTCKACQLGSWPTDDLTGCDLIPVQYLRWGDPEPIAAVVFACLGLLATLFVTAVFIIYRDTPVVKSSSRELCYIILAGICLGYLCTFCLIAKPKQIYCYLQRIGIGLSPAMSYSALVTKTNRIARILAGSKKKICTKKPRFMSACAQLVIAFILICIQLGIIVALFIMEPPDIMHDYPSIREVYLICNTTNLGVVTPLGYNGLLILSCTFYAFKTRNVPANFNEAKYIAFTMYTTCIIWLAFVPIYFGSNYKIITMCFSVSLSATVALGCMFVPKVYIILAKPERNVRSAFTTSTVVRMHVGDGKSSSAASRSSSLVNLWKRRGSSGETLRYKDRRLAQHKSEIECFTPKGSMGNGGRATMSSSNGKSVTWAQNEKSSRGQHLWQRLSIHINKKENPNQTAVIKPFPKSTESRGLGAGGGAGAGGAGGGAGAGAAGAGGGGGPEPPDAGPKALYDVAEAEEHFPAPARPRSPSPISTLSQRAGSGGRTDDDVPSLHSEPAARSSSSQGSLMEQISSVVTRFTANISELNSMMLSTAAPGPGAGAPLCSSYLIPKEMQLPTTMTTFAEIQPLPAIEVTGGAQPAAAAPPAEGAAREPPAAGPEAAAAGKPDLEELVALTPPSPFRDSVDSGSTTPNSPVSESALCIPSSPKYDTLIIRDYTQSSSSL
T1 sequence (P41594 21-1212): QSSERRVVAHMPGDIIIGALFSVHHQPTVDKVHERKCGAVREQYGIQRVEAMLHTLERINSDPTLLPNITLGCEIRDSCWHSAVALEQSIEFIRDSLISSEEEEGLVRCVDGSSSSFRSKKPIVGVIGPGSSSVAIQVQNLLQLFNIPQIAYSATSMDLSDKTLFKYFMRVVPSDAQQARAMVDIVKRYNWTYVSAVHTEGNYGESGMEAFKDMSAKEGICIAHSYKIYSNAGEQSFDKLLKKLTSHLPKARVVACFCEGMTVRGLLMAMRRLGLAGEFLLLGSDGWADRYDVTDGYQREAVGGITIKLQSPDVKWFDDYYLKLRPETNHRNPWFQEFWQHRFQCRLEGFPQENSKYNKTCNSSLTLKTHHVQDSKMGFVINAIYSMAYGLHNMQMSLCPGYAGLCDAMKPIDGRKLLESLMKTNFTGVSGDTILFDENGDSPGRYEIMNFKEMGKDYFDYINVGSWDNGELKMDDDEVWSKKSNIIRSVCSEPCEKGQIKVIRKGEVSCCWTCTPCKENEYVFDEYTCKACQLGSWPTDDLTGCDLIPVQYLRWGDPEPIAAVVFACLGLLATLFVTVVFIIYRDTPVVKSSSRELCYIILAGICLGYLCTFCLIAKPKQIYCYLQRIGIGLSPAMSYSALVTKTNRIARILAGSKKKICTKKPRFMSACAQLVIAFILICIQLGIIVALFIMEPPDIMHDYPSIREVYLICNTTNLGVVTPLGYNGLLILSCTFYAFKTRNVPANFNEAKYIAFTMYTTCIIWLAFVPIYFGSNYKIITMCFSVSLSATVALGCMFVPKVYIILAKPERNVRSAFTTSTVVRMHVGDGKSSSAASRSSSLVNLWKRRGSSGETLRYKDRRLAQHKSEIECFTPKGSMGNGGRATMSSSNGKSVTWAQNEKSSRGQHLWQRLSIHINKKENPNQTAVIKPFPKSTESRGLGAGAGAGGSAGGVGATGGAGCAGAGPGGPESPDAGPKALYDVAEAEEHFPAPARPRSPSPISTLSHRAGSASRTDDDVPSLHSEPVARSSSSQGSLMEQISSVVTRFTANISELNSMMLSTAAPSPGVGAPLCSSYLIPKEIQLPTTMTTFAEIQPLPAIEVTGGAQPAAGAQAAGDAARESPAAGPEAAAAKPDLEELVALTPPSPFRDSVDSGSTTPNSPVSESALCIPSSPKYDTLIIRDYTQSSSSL

IC50 (mGluR5 receptor; [1]) [nM] | inhibition at 10 µM (mGluR5 receptor) [%] | Structure (SMILES) | further results
70 |  | N#CCC(=O)N(Cc1cccc(-c2ccc3ncnc(NC4CC4)c3c2)c1)C1CC1 [Example 211, 2-cyano-N-cyclopropyl-N-[3-(4-cyclopropylamino-quinazolin-6-yl)-benzyl]-acetamide] | Ki (mGluR5 receptor (human)): 8.4 nM
40 |  | CCOC(=O)N(Cc1cccc(-c2ccc3ncnc(NC4CC4)c3c2)c1)C1CC1 [Example 875, ethyl cyclopropyl(3-(4-(cyclopropylamino)quinazolin-6-yl)benzyl)carbamate] | Ki (mGluR5 receptor (human)): 51.1 nM
70 |  | O=C1CCC(=O)N1Cc1cccc(-c2cc3c(NC4CC4)ncnc3cc2F)c1 [Example 882, 1-(3-(4-(cyclopropylamino)-7-fluoroquinazolin-6-yl)benzyl)pyrrolidine-2,5-dione] | Ki (mGluR5 receptor (human)): 2.7 nM
 | 84 | O=C(c1cccs1)N(Cc1cccc(-c2ccc3ncnc(NC4CC4)c3c2)c1)C1CC1 [Example 178, thiophene-2-carboxylic acid cyclopropyl-[3-(4-cyclopropylamino-quinazolin-6-yl)-benzyl]-amide] | 
570 |  | COC(=O)CC(=O)N(Cc1cccc(-c2ccc3ncnc(NC4CC4)c3c2)c1)C1CC1 [Example 237, N-cyclopropyl-N-[3-(4-cyclopropylamino-quinazolin-6-yl)-benzyl]-methyl malonate] | 
 | 93 | O=C(c1c(F)c(F)c(F)c(F)c1F)N(Cc1cc(-c2ccc3ncnc(NC4CC4)c3c2)ccn1)C1CC1 [Example 803, N-cyclopropyl-N-((4-(4-(cyclopropylamino)quinazolin-6-yl)pyridin-2-yl)methyl)-2,3,4,5,6-pentafluorobenzamide] | 
 | 91 | O=S(=O)(c1cccs1)N(Cc1cc(-c2ccc3ncnc(NC4CC4)c3c2)ccc1Cl)C1CC1 [Example 734, N-(2-chloro-5-(4-(cyclopropylamino)quinazolin-6-yl)benzyl)-N-cyclopropylthiophene-2-sulfonamide] | 

Continued, compound first:

Structure (SMILES) | IC50 (mGluR5 receptor; [1]) [nM] | inhibition at 10 µM (mGluR5 receptor) [%] | further results
COc1ccc(CN(C(C)=O)C2CC2)cc1-c1ccc2ncnc(NC3CC3)c2c1 [Example 261, N-cyclopropyl-N-[3-(4-cyclopropylamino-quinazolin-6-yl)-4-methoxy-benzyl]-acetamide] | 200 |  | Ki (mGluR5 receptor (human)): 39 nM
O=C(c1ccccc1)N(Cc1cccc(-c2ccc3ncnc(N4CCCC4)c3c2)c1)C1CC1 [Example 121, N-cyclopropyl-N-[3-(4-pyrrolidin-1-yl-quinazolin-6-yl)-benzyl]-benzamide] |  |  | Ki (mGluR5 receptor (human)): 7.5 nM
O=C(c1cccc(F)c1)N(Cc1cc(-c2ccc3ncnc(NC4CC4)c3c2)ccn1)C1CC1 [Example 795, N-cyclopropyl-N-((4-(4-(cyclopropylamino)quinazolin-6-yl)pyridin-2-yl)methyl)-3-fluorobenzamide] |  | 73 | 
Cc1nc(C(=O)N(Cc2cccc(-c3ccc4ncnc(NCCc5ccccc5)c4c3)c2)C2CC2)cs1 [Example 609, N-cyclopropyl-2-methyl-N-(3-(4-(phenethylamino)quinazolin-6-yl)benzyl)thiazole-4-carboxamide] |  | 30 | 
Cc1cccc(CNc2ncnc3ccc(-c4cccc(CN(C(=O)c5cccnc5)C5CC5)c4)cc23)c1 [Example 411, N-cyclopropyl-N-(3-(4-(3-methylbenzylamino)quinazolin-6-yl)benzyl)nicotinamide] |  | 34 | 
O=C1CCC(=O)N1Cc1cc(F)cc(-c2ccc3ncnc(NC4CC4)c3c2)c1 [Example 889, 1-(3-(4-(cyclopropylamino)quinazolin-6-yl)-5-fluorobenzyl)pyrrolidine-2,5-dione] | 500 |  | 
O=C(c1cccnc1)N(Cc1cccc(-c2ccc3ncnc(NC4CC4)c3c2)c1)C1CC1 [Example 248, N-cyclopropyl-N-[3-(4-cyclopropylamino-quinazolin-6-yl)-benzyl]-nicotinamide] | 3150 |  | 
O=S(=O)(c1cccc(C(F)(F)F)c1)N(Cc1cc(-c2ccc3ncnc(NC4CC4)c3c2)ccc1F)C1CC1 [Example 375, N-cyclopropyl-N-(5-(4-(cyclopropylamino)quinazolin-6-yl)-2-fluorobenzyl)-3-(trifluoromethyl)benzole sulfonamide] |  |  | % Inhibition of mGluR5 Receptor (pig) [^3H]-MPEP Bond at 10 μM (mGluR5 receptor): 34%
CC(NC1CC1)c1cccc(-c2ccc3ncnc(NC4CC4)c3c2)c1 (stereo not drawn) [Example 307, N-cyclopropyl-6-(3-(1-(cyclopropylamino)ethyl)phenyl)quinazoline-4-amine] |  | 37 | 
CCCCC(=O)N(Cc1cc(-c2ccc3ncnc(NC4CC4)c3c2)ccc1F)C1CC1 [Example 382, N-cyclopropyl-N-(5-(4-(cyclopropylamino)quinazolin-6-yl)-2-fluorobenzyl)pentanamide] |  | 89 | 
COc1ccc(CNc2ncnc3ccc(-c4cccc(CN(C(=O)c5cc(C)nn5C)C5CC5)c4)cc23)c(OC)c1 [Example 730, N-cyclopropyl-N-(3-(4-(2,4-dimethoxybenzylamino)quinazolin-6-yl)benzyl)-1,3-dimethyl-1H-pyrazole-5-carboxamide] |  | 35 | 
O=C(c1cc(Cl)cc(Cl)c1)N(Cc1cc(-c2ccc3ncnc(NC4CC4)c3c2)ccc1F)C1CC1 [Example 421, 3,5-dichloro-N-cyclopropyl-N-(5-(4-(cyclopropylamino)quinazolin-6-yl)-2-fluorobenzyl)benzamide] |  | 81 | 
Cc1nc(NC2CC2)c2cc(-c3ccc(F)c(CN(C(=O)C4CCCCC4)C4CC4)c3)ccc2n1 [Example 639, N-cyclopropyl-N-(5-(4-(cyclopropylamino)-2-methylquinazolin-6-yl)-2-fluorobenzyl)cyclohexane carboxamide] |  | 46 | 
ClCCNCc1cccc(-c2ccc3ncnc(NC4CC4)c3c2)c1 [Example 315, 6-(3-((2-chloroethylamino)methyl)phenyl)-N-cyclopropylquinazoline-4-amine] |  |  | IC50 (mGluR5 receptor; IC50 mGluR5 Receptor (pig) [^3H]-MPEP Bond): 2740 nM
O=C1CCC(c2ccccc2)C(=O)N1Cc1cccc(-c2ccc3ncnc(NC4CC4)c3c2)c1 (stereo not drawn) [Example 220, 1-[3-(4-cyclopropylamino-quinazolin-6-yl)-benzyl]-3-phenyl-piperidine-2,6-dione; hydrochloride] | 4250 |  | 
O=S(=O)(c1c(F)c(F)c(F)c(F)c1F)N(Cc1cccc(-c2cc(F)c3ncnc(NC4CC4)c3c2)c1)C1CC1 [Example 761, N-cyclopropyl-N-(3-(4-(cyclopropylamino)-8-fluoroquinazolin-6-yl)benzyl)-2,3,4,5,6-pentafluorobenzole sulfonamide] |  |  | % Inhibition of mGluR5 Receptor (pig) [^3H]-MPEP Bond at 10 μM (mGluR5 receptor): 45%
CC(=O)N(Cc1cccc(-c2ccc3ncnc(NC4CC4)c3c2)c1)c1ccccc1 [Example 207, N-(3-(4-(cyclopropylamino)quinazolin-6-yl)benzyl)-N-phenylacetamide hydrochloride] | 7170 |  | 
O=C(CCc1ccccc1)N(Cc1cc(-c2ccc3ncnc(NC4CC4)c3c2)ccc1F)C1CC1 [Example 414, N-cyclopropyl-N-(5-(4-(cyclopropylamino)quinazolin-6-yl)-2-fluorobenzyl)-3-phenylpropanamide] |  | 93 | 
CC(=O)N(C)Cc1cccc(-c2ccc3ncnc(NC4CC4)c3c2)c1 [Example 221, N-[3-(4-cyclopropylamino-quinazolin-6-yl)-benzyl]-N-methyl-acetamide] | 5360 |  | 
CC(=O)N(Cc1c(F)ccc(-c2ccc3ncnc(NC4CC4)c3c2)c1F)C1CC1 [Example 249, N-cyclopropyl-N-[3-(4-cyclopropylamino-quinazolin-6-yl)-2,6-difluoro-benzyl]-acetamide] | 140 |  | 
CC(=O)N(Cc1cccc(-c2ccc3ncnc(NC4CC4)c3c2)c1)C1CCCC1 [Example 209, N-cyclopentyl-N-(3-(4-(cyclopropylamino)quinazolin-6-yl)benzyl)acetamide] |  | 63 | 
CC(=O)N(Cc1cccc(-c2ccc3ncnc(NC4CC4)c3c2)c1F)C1CC1 [Example 191, N-cyclopropyl-N-(3-(4-(cyclopropylamino)quinazolin-6-yl)-2-fluorobenzyl)acetamide] | 670 |  | 
